This is an account of results in PMC11546610, “Molecular Modeling and In Vitro Functional Analysis of the RGS12 PDZ Domain Variant Associated with High-Penetrance Familial Bipolar Disorder” (International Journal of Molecular Sciences, 2024).

Positions count from the first letter of the chain named. In names and notes the source's numbering stands. Residues, ends and D or L forms follow the SMILES beside them. *: point of attachment. Biotin = O=C1N[C@H]2[C@H](CS[C@H]2CCCCC(=O)*)N1; Ahx = NCCCCCC(=O)O

Experiment [1] has as its system RGS12 PDZ domain protein fusions. Particulars: yeast two-hybrid, far-western blotting, SPR; ref [19]; cited from earlier work. From the text: In our initial report identifying the PDZ domain within RGS12, we characterized its binding selectivity as being directed toward C-terminal (A/S)-T-X-(L/V) peptide motifs. […] Our subsequent report, characterizing RGS12 as a neuronal Ras/MAPK ...

Experiment [2] concerns the target T1, R59Q-variant RGS12 PDZ domain GST-fusion protein (Homo sapiens, UniProt O14924, R59Q).
T1 construct: human RGS12 PDZ domain (aa 18–101 of UniProt O14924); purchased GenScript; host or cells: E. coli
T1 sequence (O14924 18-101 R59Q): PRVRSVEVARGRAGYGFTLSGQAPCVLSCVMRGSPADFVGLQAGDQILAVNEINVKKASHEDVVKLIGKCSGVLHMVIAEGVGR
The experiment can be described thus: SPR single-cycle kinetics (Alto), R59Q-variant PDZ domain. Format: binding. The following applies: for KD of R59Q variant relative to wildtype (fold less than the wildtype) / maximal binding signal (Rmax), R59Q in comparison to wildtype: R59Q vs wildtype, peptide biosensors, N = 2-4; for kon: R59Q, single trace in figure, 111 nM–9 μM analyte, PBS pH 7.3, 1:1 Langmuir with mass transport limitation, read-out: apparent on-rate (ka). On the procedure: (§1) Wildtype and R59Q-variant versions of the human RGS12 PDZ domain (aa 18–101 of UniProt O14924) were each cloned in frame with an N-terminal glutathione-S-transferase (GST) expression tag, expressed by E. coli fermentation, and purified by GST-affinity column and size-exclusion column chromatographies by GenScript. These recombinant GST-fusion proteins were stored at −80 °C in a storage buffer (150 mM NaCl, 10 mM Tris-HCl pH 7.6, 1 mM EDTA, 5 mM DTT, and 10% glycerol) prior to thawing and supplementation with 0.1% (final) Tween 20 for use in the SPR experiments.
Biotinylated peptides were separately immobilized onto streptavidin-coated gold nanosensor particles (Nicoya) in lane pairs. The reference sensor of the lane held either immobilized mNotch1 or rβ2AR peptide as an established negative control surface, and the test sensor held one of the candidate PDZ domain-interacting peptides. All on-board dilutions and experimental passages of analytes over immobilized peptides were performed with a running buffer consisting of phosphate-buffered saline (137 mM NaCl, 2.7 mM KCl, 4.3 mM disodium phosphate, 1.4 mM monopotassium phosphate; and pH 7.3, from Teknova) supplemented with 0.1% Tween 20 (Nicoya), […] (w/v) bovine serum albumin (BSA; Nicoya), and 3% glycerol (the latter to reduce bulk-shift readings when transitioning from running buffer to protein analyte injections). […] Each sensor was regenerated between each single-stack passage by the injection of a surface regeneration buffer (10 mM NaOH). Non-specific binding to the paired, negative control peptide-bound streptavidin surface was subtracted from each single-stack curve and then binding parameters of the on-rate (ka), off-rate (kd), and dissociation constant (KD) were calculated using the 1:1 Langmuir kinetics model with mass transport limitation (Alto software version 2.3.1; Nicoya). Observed maximal response units (Rmax) and calculated KD values for each single-stack injection were plotted using GraphPad Prism 10.

For experiment [3], the target named is T2, wildtype RGS12 PDZ domain GST-fusion protein (Homo sapiens, UniProt O14924).
T2 construct: human RGS12 PDZ domain (aa 18–101 of UniProt O14924); purchased GenScript; host or cells: E. coli
T2 sequence (O14924 18-101): T1 sequence (O14924 18-101 R59Q) with Q42R
The experiment can be described thus: SPR single-cycle kinetics (Alto), wildtype PDZ domain. The experiment is classed as binding. Particulars: single trace in figure, 111 nM–9 μM analyte, PBS pH 7.3, 1:1 Langmuir with mass transport limitation, read-out: apparent on-rate (ka). On the procedure: as §1
Biotinylated peptides were separately immobilized onto streptavidin-coated gold nanosensor particles (Nicoya) in lane pairs. […] All on-board dilutions and experimental passages of analytes over immobilized peptides were performed with a running buffer consisting of phosphate-buffered saline (137 mM NaCl, 2.7 mM KCl, 4.3 mM disodium phosphate, 1.4 mM monopotassium phosphate; and pH 7.3, from Teknova) supplemented with 0.1% Tween 20 (Nicoya), […] (w/v) bovine serum albumin (BSA; Nicoya), and 3% glycerol (the latter to reduce bulk-shift readings when transitioning from running buffer to protein analyte injections). […] Observed maximal response units (Rmax) and calculated KD values for each single-stack injection were plotted using GraphPad Prism 10.

In experiment [4] the target is T3, MEK2 C-terminal peptide, biotin-Ahx-RTLRLKQPSTPTRTAV-carboxylic acid (rat, SMILES …).
T3 construct: C-terminus of MEK2; also called MEK2 C-tail; TRTAV-COOH of MEK2; source: synthetic peptide (GenScript)
T3 peptide: {Biotin-Ahx}-RTLRLKQPSTPTRTAV-OH
The experiment can be described thus: SPR; Alto 8 × 2 digital microfluidics SPR (Nicoya); biotinylated peptides immobilised on streptavidin-coated gold nanosensors; GST-RGS12 PDZ fusion protein as analyte, single-cycle kinetics, 111 nM-9 μM; PBS pH 7.3 with 0.1% Tween 20, BSA, 3% glycerol; mNotch1 or rβ2AR reference sensor subtracted; 1:1 Langmuir model with mass transport limitation; apparent rates, estimated KD. The following applies: both partners purified.

The target in experiment [5] is T4, SAPAP3 C-terminal peptide, biotin-Ahx-IYIPEAQTRL-carboxylic acid (human, SMILES …).
T4 construct: C-terminus of SAPAP3; the last ten residues of the human 20-mer aa 960-979; also called SAPAP3 C-tail peptide AQTRL-COOH; source: synthetic peptide (GenScript)
T4 peptide: {Biotin-Ahx}-IYIPEAQTRL-OH
Described as above. The following applies: both partners purified.

Experiment [6] addresses T5, CXCR2 C-terminal peptide, biotin-Ahx-VGSSSGHTSTTL-carboxylic acid (SMILES …).
T5 construct: C-terminus of CXCR2; also called CXCR2 C-tail peptide TSTTL-COOH; CXCR2 TSTTL-COOH biosensor; source: synthetic peptide (GenScript)
T5 peptide: {Biotin-Ahx}-VGSSSGHTSTTL-OH
Described as above. Particulars: both partners purified.

Turning to “TSTTL-COOH [CXCR2 C-tail pentamer used in docking and MD]”, the “binding to RGS12 PDZ domain fusions (in words)” value in experiment [1] is on record as “specific binding was observed”.

Regarding `CC[C@H](C)[C@H](NC(=O)CCCCCNC(=O)CCCC[C@@H]1SC[C@@H]2NC(=O)N[C@@H]21)C(=O)N[C@@H](Cc1ccc(O)cc1)C(=O)N[C@H](C(=O)N1CCC[C@H]1C(=O)N[C@@H](CCC(=O)O)C(=O)N[C@@H](C)C(=O)N[C@@H](CCC(N)=O)C(=O)N[C@H](C(=O)N[C@@H](CCCNC(=N)N)C(=O)N[C@@H](CC(C)C)C(=O)O)[C@@H](C)O)[C@@H](C)CC` ({Biotin-Ahx}-IYIPEAQTRL-OH), in experiment [2], the “KD of R59Q variant relative to wildtype (fold less than the wildtype)” value was “at least 2 fold”; the “maximal binding signal (Rmax), R59Q in comparison to wildtype” value is “less maximal binding signal (Rmax)”; the kon was determined as 15400 M⁻¹ s⁻¹. Further, in experiment [3], the kon turned out to be 1490 M⁻¹ s⁻¹.

As for `CC(C)C[C@H](NC(=O)[C@@H](NC(=O)[C@@H](NC(=O)[C@H](CO)NC(=O)[C@@H](NC(=O)[C@H](Cc1c[nH]cn1)NC(=O)CNC(=O)[C@H](CO)NC(=O)[C@H](CO)NC(=O)[C@H](CO)NC(=O)CNC(=O)[C@@H](NC(=O)CCCCCNC(=O)CCCC[C@@H]1SC[C@@H]2NC(=O)N[C@@H]21)C(C)C)[C@@H](C)O)[C@@H](C)O)[C@@H](C)O)C(=O)O` ({Biotin-Ahx}-VGSSSGHTSTTL-OH), in experiment [2], the “KD of R59Q variant relative to wildtype (fold less than the wildtype)” value is given as “at least 2 fold”; the “maximal binding signal (Rmax), R59Q in comparison to wildtype” value is on record as “less maximal binding signal (Rmax)”; the kon amounted to 1500 M⁻¹ s⁻¹. The kon in experiment [3] was 1210 M⁻¹ s⁻¹.

B1: R59Q-variant human RGS12 PDZ domain GST-fusion protein (domain or fragment, UniProt O14924 18-101, looked up)
chain: T1 sequence (O14924 18-101 R59Q)
notes: human RGS12 PDZ domain, aa 18-101 of UniProt O14924, with the bipolar disorder-associated missense variation R59Q; R59Q is a variant found in families with bipolar disorder (Forstner et al.); also called R59Q-variant PDZ domain fusion protein; not shown: GST, N-terminal, kept
For the molecule B1, the “fold change of KD against the wild type” value in experiment [4], in experiment [5] and in experiment [6] was not below 2 fold in each case.
